{"source": "PubChem BioAssay AID403", "about": "(SGCOxCompounds, 2006)", "data": [{"target": "Receptor-type tyrosine-protein phosphatase eta (Homo sapiens) (UniProt Q12913)", "sequence (Q12913 whole entry, looked up)": "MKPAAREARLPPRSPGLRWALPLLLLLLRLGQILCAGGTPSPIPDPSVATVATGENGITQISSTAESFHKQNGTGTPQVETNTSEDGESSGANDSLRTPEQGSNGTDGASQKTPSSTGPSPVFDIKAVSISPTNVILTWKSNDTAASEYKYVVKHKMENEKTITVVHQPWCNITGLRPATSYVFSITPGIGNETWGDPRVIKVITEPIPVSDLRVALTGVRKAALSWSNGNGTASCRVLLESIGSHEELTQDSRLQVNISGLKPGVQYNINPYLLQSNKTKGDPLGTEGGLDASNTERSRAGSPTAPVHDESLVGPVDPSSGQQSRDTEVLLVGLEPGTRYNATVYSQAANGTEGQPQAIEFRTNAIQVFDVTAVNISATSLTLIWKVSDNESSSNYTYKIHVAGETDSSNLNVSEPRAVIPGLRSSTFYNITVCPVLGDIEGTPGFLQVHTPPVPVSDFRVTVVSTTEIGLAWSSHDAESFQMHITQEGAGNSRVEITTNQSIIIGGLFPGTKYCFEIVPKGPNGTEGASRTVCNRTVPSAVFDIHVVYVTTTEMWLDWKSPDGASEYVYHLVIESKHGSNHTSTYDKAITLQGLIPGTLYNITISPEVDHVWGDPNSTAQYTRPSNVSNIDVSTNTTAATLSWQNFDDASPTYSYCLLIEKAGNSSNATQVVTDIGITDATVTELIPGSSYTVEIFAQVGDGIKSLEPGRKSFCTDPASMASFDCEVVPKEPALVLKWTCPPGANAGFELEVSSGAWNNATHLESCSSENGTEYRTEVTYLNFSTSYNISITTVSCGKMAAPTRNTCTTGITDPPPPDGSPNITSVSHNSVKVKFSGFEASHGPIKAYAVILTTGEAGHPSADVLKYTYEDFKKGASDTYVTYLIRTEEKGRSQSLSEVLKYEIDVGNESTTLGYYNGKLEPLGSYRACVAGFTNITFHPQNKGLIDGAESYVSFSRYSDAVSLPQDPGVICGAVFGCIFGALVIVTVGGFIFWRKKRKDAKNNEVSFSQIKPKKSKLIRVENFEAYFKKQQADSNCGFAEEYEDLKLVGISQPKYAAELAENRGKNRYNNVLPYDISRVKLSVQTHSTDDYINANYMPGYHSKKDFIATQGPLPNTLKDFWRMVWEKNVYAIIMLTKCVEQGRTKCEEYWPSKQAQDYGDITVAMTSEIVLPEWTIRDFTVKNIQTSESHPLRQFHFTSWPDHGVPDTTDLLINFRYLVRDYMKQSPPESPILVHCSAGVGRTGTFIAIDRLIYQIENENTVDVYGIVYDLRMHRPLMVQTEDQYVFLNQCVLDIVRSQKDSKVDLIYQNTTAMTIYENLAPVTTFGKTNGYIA", "test": "inhibition of receptor phosphatase PTPRJ activity – biochemical, human, DiFMUP fluorescence (AID 403)", "details": "recombinant PTPRJ, 25 C, at 50 µM, enzyme 0.05 ng/mL, DTT 5 mM, hits give high values", "units": {"inhibition": "%"}, "values": [{"smiles": "Cc1c(Cl)c(C)c([N+](=O)[O-])c(O)c1C=Nc1ccc(O)cc1C(=O)O", "inhibition": 95}, {"smiles": "Cc1ccc(N=Cc2cc(C(=O)O)ccc2O)c(O)c1", "inhibition": 55}, {"smiles": "O=C(O)c1ccc(O)c(C=Nc2ccc3oc(-c4ccccc4)nc3c2)c1", "inhibition": 52}, {"smiles": "O=C(O)c1ccc(O)c(N2C(=O)Nc3ccccc3N2O)c1", "inhibition": 82}, {"smiles": "O=C1NC(=S)S/C1=C\\C=C\\c1ccc([N+](=O)[O-])o1", "inhibition": 50}, {"smiles": "CC(C)(c1ccc(NS(=O)(=O)C(F)(F)F)cc1)c1ccc(C(C)(C)c2ccc(NS(=O)(=O)C(F)(F)F)cc2)cc1", "inhibition": 66}, {"smiles": "O=C(O)c1ccc(O)cn1.OO.[O]=[V]", "inhibition": 92}, {"smiles": "COc1ccc(-c2nc3cc(N=Cc4cc(C(=O)O)ccc4O)ccc3o2)cc1", "inhibition": 67}, {"smiles": "[NH-]CO.[NH-]CO.[NH-]CO.[NH-]CO.[O]=[V][O][V]=[O]", "inhibition": 100}, {"smiles": "O=C(O)c1ccc([O-])cn1.OO.OO.[K+].[K+].[O]=[V]", "inhibition": 99}, {"smiles": "OO.OO.[K+].[O]=[V].c1ccc(-c2ccccn2)nc1", "inhibition": 98}, {"smiles": "O=C([O-])c1ccccn1.OO.OO.[K+].[K+].[O]=[V]", "inhibition": 100}, {"smiles": "CN(N=O)c1ccc(O)c(O)c1", "inhibition": 97}]}]}
